Reference: ChEMBL document CHEMBL3045782, “SYNTHESIS OF THE RIGID ANALOGUES OF AN SSRI BENZENEPROPANAMINE” (Med Chem Res, 2004)
Activity calls are given as the source filed them. The rule behind the calls is not given here.

Experiments:
Mus musculus [1] = assay: Anorexigenic activity in Mus musculus albino (mouse) assessed as anorexia at 75 umol/kg, ip relative to fluoxetine; format: functional
Mus musculus [2] = assay: Anorexigenic activity in Mus musculus albino (mouse) assessed as anorexia at 75 umol/kg, ip; format: functional
Mus musculus [3] = assay: Antidepressant activity in Mus musculus albino (mouse) assessed as reversal of reserpine-induced ptosis, sedation and crouching at 75 umol/kg, ip; format: functional
Mus musculus [4] = assay: Toxicity in Mus musculus albino (mouse) assessed as effect on gross behavior activity at 75 umol/kg, ip; format: organism-based; conditions: in vivo

For `COc1cccc(OCC(O)CN2CCC(Oc3ccc(C(F)(F)F)cc3)CC2)c1` (stereo unspecified), which Activity (Mus musculus [1]) is on record?
The Activity was 63.23%.

And the Activity (Mus musculus [2])?
Its Activity is 51.6%.

And the Activity (Mus musculus [3])?
The Activity was 50%.

What about the Activity (Mus musculus [4]) of the same molecule?
Its Activity is “Non-toxic”.

Which results are given for `CN1CCC(O)(c2ccccc2)CC1`?
Activity (Mus musculus [1]): 56.86%; Activity (Mus musculus [2]): 46.4%; Activity (Mus musculus [3]): inactive; Activity (Mus musculus [4]): Non-toxic

How did the Activity (Mus musculus [1]) turn out when `OC(COc1cccc(C(F)(F)F)c1)CN1CCC(Oc2ccc(C(F)(F)F)cc2)CC1` (stereo unspecified) was run?
Its Activity is 38.23%.

What about the Activity (Mus musculus [2]) of the same molecule?
The Activity was 31.2%.

What about the Activity (Mus musculus [3]) of the same molecule?
Its Activity is “inactive”.

What about the Activity (Mus musculus [4]) of the same molecule?
Its Activity is “Non-toxic”.

How did the Activity (Mus musculus [1]) turn out when `OC(COc1ccc(Cl)cc1)CN1CCC(Oc2ccc(C(F)(F)F)cc2)CC1` (stereo unspecified) was run?
Its Activity is 75.49%.

What about the Activity (Mus musculus [2]) of the same molecule?
Its Activity is 61.6%.

What about the Activity (Mus musculus [3]) of the same molecule?
The Activity was 75%.

What about the Activity (Mus musculus [4]) of the same molecule?
Its Activity is “Non-toxic”.

For `COC(=O)c1ccccc1OCC(O)CN1CCC(Oc2ccc(C(F)(F)F)cc2)CC1` (stereo unspecified), which Activity (Mus musculus [1]) is on record?
Its Activity is 43.13%.

And the Activity (Mus musculus [2])?
Its Activity is 35.2%.

And the Activity (Mus musculus [3])?
The Activity was “inactive”.

What about the Activity (Mus musculus [4]) of the same molecule?
The Activity was “Non-toxic”.

What does the source list for `CN1CCC(Oc2ccc(C(F)(F)F)cc2)CC1`?
Activity (Mus musculus [1]): 28.92%; Activity (Mus musculus [2]): 23.6%; Activity (Mus musculus [3]): inactive; Activity (Mus musculus [4]): Non-toxic

`CC(=O)c1ccc(OCC(O)CN2CCC(Oc3ccc(C(F)(F)F)cc3)CC2)cc1` (stereo unspecified) was tested. Which Activity (Mus musculus [1]) did it give?
The Activity was 96.07%.

What about the Activity (Mus musculus [2]) of the same molecule?
Its Activity is 78.4%.

What about the Activity (Mus musculus [3]) of the same molecule?
Its Activity is “inactive”.

And the Activity (Mus musculus [4])?
The Activity was “Non-toxic”.

For `OC(COc1ccccc1)CN1CCC(Oc2ccc(C(F)(F)F)cc2)CC1` (stereo unspecified), which Activity (Mus musculus [1]) is on record?
Its Activity is 82.84%.

What about the Activity (Mus musculus [2]) of the same molecule?
The Activity was 67.6%.

And the Activity (Mus musculus [3])?
Its Activity is “inactive”.

And the Activity (Mus musculus [4])?
Its Activity is “Non-toxic”.

For `OC(COc1ccc(Br)cc1)CN1CCC(Oc2ccc(C(F)(F)F)cc2)CC1` (stereo unspecified), which Activity (Mus musculus [1]) is on record?
The Activity was 95.09%.

What about the Activity (Mus musculus [2]) of the same molecule?
The Activity was 77.6%.

And the Activity (Mus musculus [3])?
The Activity was “inactive”.

What about the Activity (Mus musculus [4]) of the same molecule?
The Activity was “Non-toxic”.

Which Activity (Mus musculus [1]) does the source give for `COC(=O)c1ccc(OCC(O)CN2CCC(Oc3ccc(C(F)(F)F)cc3)CC2)cc1` (stereo unspecified) here?
The Activity was 32.84%.

What about the Activity (Mus musculus [2]) of the same molecule?
The Activity was 26.8%.

What about the Activity (Mus musculus [3]) of the same molecule?
Its Activity is “inactive”.

What about the Activity (Mus musculus [4]) of the same molecule?
The Activity was “Non-toxic”.

`FC(F)(F)c1ccc(OC2CCNCC2)cc1` was tested. Which Activity (Mus musculus [1]) did it give?
The Activity was 81.86%.

And the Activity (Mus musculus [2])?
Its Activity is 66.8%.

What about the Activity (Mus musculus [3]) of the same molecule?
The Activity was 75%.

What about the Activity (Mus musculus [4]) of the same molecule?
The Activity was “Non-toxic”.

Which Activity (Mus musculus [2]) does the source give for `CNCCC(Oc1ccc(C(F)(F)F)cc1)c1ccccc1` (stereo unspecified) [FLUOXETINE] here?
Its Activity is 81.6%.

What about the Activity (Mus musculus [3]) of the same molecule?
The Activity was 100%.

For `CC(=O)Nc1ccc(OCC(O)CN2CCC(Oc3ccc(C(F)(F)F)cc3)CC2)cc1` (stereo unspecified), which Activity (Mus musculus [1]) is on record?
The Activity was 61.67%.

And the Activity (Mus musculus [2])?
Its Activity is 50.4%.

And the Activity (Mus musculus [3])?
The Activity was “inactive”.

What about the Activity (Mus musculus [4]) of the same molecule?
The Activity was “Non-toxic”.

For `COc1ccc(OCC(O)CN2CCC(Oc3ccc(C(F)(F)F)cc3)CC2)cc1` (stereo unspecified), which Activity (Mus musculus [1]) is on record?
The Activity was 47.05%.

What about the Activity (Mus musculus [2]) of the same molecule?
Its Activity is 38.4%.

And the Activity (Mus musculus [3])?
The Activity was “inactive”.

And the Activity (Mus musculus [4])?
Its Activity is “Non-toxic”.

`CCC(=O)c1ccc(OCC(O)CN2CCC(Oc3ccc(C(F)(F)F)cc3)CC2)cc1` (stereo unspecified) was tested. Which Activity (Mus musculus [1]) did it give?
The Activity was 67.64%.

What about the Activity (Mus musculus [2]) of the same molecule?
Its Activity is 55.2%.

What about the Activity (Mus musculus [3]) of the same molecule?
Its Activity is “inactive”.

What about the Activity (Mus musculus [4]) of the same molecule?
Its Activity is “Non-toxic”.

Which results are given for `N#Cc1ccc(OCC(O)CN2CCC(Oc3ccc(C(F)(F)F)cc3)CC2)cc1` (stereo unspecified)?
Activity (Mus musculus [1]): 70.58%; Activity (Mus musculus [2]): 57.6%; Activity (Mus musculus [3]): inactive; Activity (Mus musculus [4]): Non-toxic

For `OC(COc1ccc(C(F)(F)F)cc1)CN1CCC(Oc2ccc(C(F)(F)F)cc2)CC1` (stereo unspecified), which Activity (Mus musculus [1]) is on record?
Its Activity is 77.94%.

What about the Activity (Mus musculus [2]) of the same molecule?
Its Activity is 63.6%.

And the Activity (Mus musculus [3])?
Its Activity is “inactive”.

What about the Activity (Mus musculus [4]) of the same molecule?
Its Activity is “Non-toxic”.
